Legend:
GTPase KRas [1] = target: T1, GTPase KRas (Homo sapiens, UniProt P01116, G12C); assay: Inhibition of KRAS G12C mutant in human MIA PaCa-2 cells assessed as reduction in whole blood pERK level incubated for 4 hrs by HTRF assay; assay type: cell-based
GTPase KRas [2] = target: T1, GTPase KRas; assay: Inhibition of KRAS G12C mutant (unknown origin) assessed as inhibition of SOS1 mediated nucleotide exchange incubated for 2 hrs in presence of GppNHp by fluorescence based analysis
GTPase KRas [3] = target: T1, GTPase KRas; assay: Inhibition of KRAS G12C mutant in human MIA PaCa-2 cells assessed as reduction in pERK level incubated for 4 hrs by HTRF assay; assay type: cell-based

Measured: IC50

T1 sequence (P01116 whole entry G12C): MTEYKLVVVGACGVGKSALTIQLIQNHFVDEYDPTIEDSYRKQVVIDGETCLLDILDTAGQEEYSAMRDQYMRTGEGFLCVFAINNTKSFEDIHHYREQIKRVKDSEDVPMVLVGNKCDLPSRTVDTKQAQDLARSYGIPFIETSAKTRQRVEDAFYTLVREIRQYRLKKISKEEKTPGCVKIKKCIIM

COC/C=C/C(=O)N1CC[C@H](n2nnc3c(O[C@@H](C)[C@@H]4CCCN4C)nc4c(F)c(-c5nn(C)c6ccccc56)c(C)cc4c32)C[C@H]1CC#N
≤ 50 nM: all assays above

C=C(F)C(=O)N1CC[C@H](n2nnc3c(O[C@@H](C)[C@@H]4CCCN4C)nc4c(F)c(-c5ncc(F)c6ccccc56)c(C)cc4c32)C[C@H]1CC#N
≤ 50 nM: all assays above

Cc1cc2c(nc(O[C@@H](C)[C@@H]3CCCN3C)c3nnn([C@H]4CCN(C(=O)/C=C/CF)[C@H](CC#N)C4)c32)c(F)c1-c1ccc2cnn(C)c2c1
≤ 50 nM: all assays above

COC/C=C/C(=O)N1CC[C@H](n2nnc3c(O[C@@H](C)[C@@H]4CCCN4C)nc4c(F)c(-c5ncc(F)c6ccccc56)c(C)cc4c32)C[C@H]1CC#N
≤ 50 nM: all assays above

Cc1cccc(-c2c(C)cc3c(nc(N4CC(C)(N(C)C)C4)c4nnn([C@H]5CCN(C(=O)/C=C/CF)[C@H](CC#N)C5)c43)c2F)c1Cl
≤ 50 nM: all assays above

COC/C=C/C(=O)N1CC[C@H](n2nnc3c(O[C@@H](C)[C@@H]4CCCN4C)nc4c(F)c(-c5ccc(F)cc5)c(C)cc4c32)C[C@H]1CC#N
≤ 50 nM: all assays above

Reference: ChEMBL document CHEMBL5257148, “Novel Tricyclic Compounds as KRAS Inhibitors for Treating Cancer” (ACS Med Chem Lett, 2023)
